# According to the supplement of paper PMC10733146:
# Assays:
# Assay in all cases: viability relative to DMSO control (fraction); higher = less drug effect (more viable cells)
# Conditions in all cases: 48 h
# [1] = tested on: primary AML patient cells (S002)
# Outline: (§1)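 Compounds were pre-plated at five concentrations, one well each, in 384-well plates, and primary mononuclear tumour cells were plated on them at 4 × 10^4 cells per well. The cells, fresh or cryopreserved, had been Ficoll-isolated from blood or bone marrow or taken from processed lymph node. After 48 h at 37 °C and 5% CO2 in RPMI-1640 with penicillin/streptomycin, L-glutamine and human serum, viability was read as CellTiter-Glo luminescence relative to the median of 16 inner DMSO wells.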
# [2] = tested on: primary AML patient cells (S009)
# Outline: as §1
# [3] = tested on: primary AML patient cells (S019)
# Outline: as §1
# [4] = tested on: primary AML patient cells (S025)
# Outline: as §1
# [5] = tested on: primary AML patient cells (S037)
# Outline: as §1
# [6] = tested on: primary AML patient cells (S055)
# Outline: as §1
# [7] = tested on: primary AML patient cells (S071)
# Outline: as §1
# [8] = tested on: primary AML patient cells (S072)
# Outline: as §1
# [9] = tested on: primary AML patient cells (S079)
# Outline: as §1
# [10] = tested on: primary AML patient cells (S089)
# Outline: as §1
# [11] = tested on: primary AML patient cells (S091)
# Outline: as §1
# [12] = tested on: primary DLBCL patient cells (S049)
# Outline: as §1
# [13] = tested on: primary DLBCL patient cells (S076)
# Outline: as §1
# [14] = tested on: primary DLBCL patient cells (S082)
# Outline: as §1
# [15] = tested on: primary MCL patient cells (S041)
# Outline: as §1
# [16] = tested on: primary T-NHL patient cells (S058)
# Outline: as §1
# [17] = tested on: primary T-PLL patient cells (S008)
# Outline: as §1
smiles,measurement,setting,value
C[C@@H](Oc1cc(-c2cnn(C3CCNCC3)c2)cnc1N)c1c(Cl)ccc(F)c1Cl [Crizotinib],viability,[1]; 0.024 µM,1.04
same,viability,[1]; 0.12 µM,1.08
same,viability,[1]; 0.6 µM,1.01
same,viability,[1]; 3 µM,0.928
same,viability,[1]; 15 µM,0.652
same,viability,[2]; 0.024 µM,0.984
same,viability,[2]; 0.12 µM,0.895
same,viability,[2]; 0.6 µM,0.761
same,viability,[2]; 3 µM,0.57
same,viability,[2]; 15 µM,0.147
same,viability,[3]; 0.024 µM,0.982
same,viability,[3]; 0.12 µM,1.11
same,viability,[3]; 0.6 µM,0.911
same,viability,[3]; 3 µM,0.665
same,viability,[3]; 15 µM,0.298
same,viability,[4]; 0.024 µM,0.983
same,viability,[4]; 0.12 µM,1.05
same,viability,[4]; 0.6 µM,1.02
same,viability,[4]; 3 µM,0.94
same,viability,[4]; 15 µM,0.794
same,viability,[5]; 0.024 µM,0.974
same,viability,[5]; 0.12 µM,0.982
same,viability,[5]; 0.6 µM,1.01
same,viability,[5]; 3 µM,0.937
same,viability,[5]; 15 µM,0.586
same,viability,[6]; 0.024 µM,0.948
same,viability,[6]; 0.12 µM,0.954
same,viability,[6]; 0.6 µM,0.999
same,viability,[6]; 3 µM,0.683
same,viability,[6]; 15 µM,0.524
same,viability,[7]; 0.024 µM,0.879
same,viability,[7]; 0.12 µM,0.837
same,viability,[7]; 0.6 µM,0.556
same,viability,[7]; 3 µM,0.363
same,viability,[7]; 15 µM,0.0351
same,viability,[8]; 0.024 µM,0.903
same,viability,[8]; 0.12 µM,0.983
same,viability,[8]; 0.6 µM,0.838
same,viability,[8]; 3 µM,0.602
same,viability,[8]; 15 µM,0.127
same,viability,[9]; 0.024 µM,0.977
same,viability,[9]; 0.12 µM,0.953
same,viability,[9]; 0.6 µM,0.872
same,viability,[9]; 3 µM,0.659
same,viability,[9]; 15 µM,0.256
same,viability,[10]; 0.024 µM,0.935
same,viability,[10]; 0.12 µM,0.93
same,viability,[10]; 0.6 µM,0.722
same,viability,[10]; 3 µM,0.359
same,viability,[10]; 15 µM,0.0318
same,viability,[11]; 0.024 µM,0.922
same,viability,[11]; 0.12 µM,0.97
same,viability,[11]; 0.6 µM,0.817
same,viability,[11]; 3 µM,0.249
same,viability,[11]; 15 µM,0.0707
same,viability,[12]; 0.024 µM,1.04
same,viability,[12]; 0.12 µM,1.08
same,viability,[12]; 0.6 µM,1.04
same,viability,[12]; 3 µM,0.98
same,viability,[12]; 15 µM,0.0442
same,viability,[13]; 0.024 µM,0.938
same,viability,[13]; 0.12 µM,1.03
same,viability,[13]; 0.6 µM,0.999
same,viability,[13]; 3 µM,0.77
same,viability,[13]; 15 µM,0.17
same,viability,[14]; 0.024 µM,0.975
same,viability,[14]; 0.12 µM,0.989
same,viability,[14]; 0.6 µM,1.01
same,viability,[14]; 3 µM,0.916
same,viability,[14]; 15 µM,0.36
same,viability,[15]; 0.024 µM,0.97
same,viability,[15]; 0.12 µM,1
same,viability,[15]; 0.6 µM,0.879
same,viability,[15]; 3 µM,0.79
same,viability,[15]; 15 µM,0.221
same,viability,[16]; 0.024 µM,0.908
same,viability,[16]; 0.12 µM,1.01
same,viability,[16]; 0.6 µM,0.903
same,viability,[16]; 3 µM,0.812
same,viability,[16]; 15 µM,0.335
same,viability,[17]; 0.024 µM,0.983
same,viability,[17]; 0.12 µM,1.02
same,viability,[17]; 0.6 µM,0.969
same,viability,[17]; 3 µM,0.955
same,viability,[17]; 15 µM,0.655
